Experimental data reported in US20220047545A1 (priority 2020, published 2022).

Molecular target: RBD of SARS-CoV-2 spike protein binding to hACE2 receptor (Severe acute respiratory syndrome coronavirus 2, UniProt P0DTC2)
Experiment: not given
Settings: not given

Row | Compound | Binding with RBD (% of control ± SD) | enhancement of blocking the RBD binding by Formula 1 when micronutrient tested individually
1 | O=c1c(-c2ccc(O)cc2)coc2cc(O)cc(O)c12 [Genistein] | 22.1 ± 2.8 % of control | –
2 | O=c1c(O)c(-c2ccc(O)c(O)c2)oc2cc(O)ccc12 [Fisetin] | 22.4 ± 1.9 % of control | –
3 | O=C(O)CC(O)C(=O)O (stereo not shown) [Malic acid] | 1.2 ± 3.7 % of control | –
4 | C=C(C)[C@@H]1CCC(C)=C[C@H]1c1c(O)cc(CCCCC)cc1O [Cannabidiol, reference compound] | 1.4 ± 0.3 % of control | –
5 | O=c1cc(-c2ccc(O)cc2)oc2cc(O)cc(O)c12 [Apigenin] | 17.1 ± 4.1 % of control | –
6 | O=C1C[C@@H](c2ccc(O)cc2)Oc2cc(O)cc(O)c21 [Naringenin] | 20 ± 5.1 % of control | –
7 | O=C(OC1Cc2c(O)cc(O)cc2OC1c1cc(O)c(O)c(O)c1)c1cc(O)c(O)c(O)c1 (single isomer, unassigned; (+)) [(+)-epigallocatechin gallate] | 87.5 ± 6.8 % of control | –
8 | Oc1cc(O)c2c(c1)O[C@H](c1ccc(O)c(O)c1)[C@@H](O)[C@@H]2c1c(O)cc(O)c2c1O[C@H](c1ccc(O)c(O)c1)[C@@H](O)C2 [Procyanidin B3] | 32.3 ± 3.7 % of control | –
9 | C=C1CC[C@@H]2[C@](C)(CO)[C@H](O)CC[C@@]2(C)[C@@H]1C/C=C1/C(=O)OC[C@H]1O [Andrographolide] | 22.1 ± 2.5 % of control | –
10 | Oc1cc(O)c2c(c1)O[C@H](c1ccc(O)c(O)c1)[C@H](O)[C@H]2c1c(O)cc(O)c2c1O[C@H](c1ccc(O)c(O)c1)[C@H](O)C2 [Procyanidin B2] | 31.1 ± 3.6 % of control | –
11 | (−)-gallocatechin gallate | 75.4 ± 5.6 % of control | –
12 | COc1c(O)cc2oc(-c3ccc(O)cc3)cc(=O)c2c1O [Hispidulin] | 20.1 ± 6.0 % of control | –
13 | Oc1ccc(/C=C/c2cc(O)cc(O)c2)cc1 [Trans-resveratrol] | 22.3 ± 2.9 % of control | –
14 | C[C@@H]1O[C@@H](OC[C@H]2O[C@@H](Oc3c(-c4ccc(O)c(O)c4)oc4cc(O)cc(O)c4c3=O)[C@H](O)[C@@H](O)[C@@H]2O)[C@H](O)[C@H](O)[C@H]1O [Rutin] | 20.6 ± 6.3 % of control | –
15 | COc1ccc(Cc2nccc3cc(OC)c(OC)cc23)cc1OC [Papaverine, reference compound] | 1.6 ± 0.2 % of control | –
16 | O[C@H]1[C@H](O)[C@@H](O)CN2CC[C@H](O)[C@H]12 [Castanospermine] | 8.2 ± 2.3 % of control | –
17 | O=c1c(O)cc([C@H]2Oc3cc(O)cc(O)c3C[C@H]2O)cc2c([C@H]3Oc4cc(O)cc(O)c4C[C@H]3O)cc(O)c(O)c12 [Theaflavin] | 27.3 ± 1.4 % of control | –
18 | O=C(/C=C/c1ccc(O)c(O)c1)O[C@H](Cc1ccc(O)c(O)c1)C(=O)O [Rosmarinic acid] | 22.5 ± 3.8 % of control | –
19 | C[S+]([O-])CCCCN=C=S [L-sulforaphane] | 30.2 ± 3.6 % of control | –
20 | COc1cc2c(cc1OC)-c1cc3ccc(OC)c(OC)c3c[n+]1CC2 [Palmatine] | 40.4 ± 6.1 % of control | –
21 | O=C(/C=C/c1ccc(O)c(O)c1)O[C@@H]1C[C@](O)(C(=O)O)C[C@@H](O)[C@H]1O [Chlorogenic acid] | 25.5 ± 2.5 % of control | –
22 | Oc1cc(O)c2c(c1)O[C@H](c1cc(O)c(O)c(O)c1)[C@@H](O)C2 [(+)-gallocatechin] | 69.5 ± 2.8 % of control | –
23 | O=c1cc(-c2ccc(O)c(O)c2)oc2cc(O)cc(O)c12 [Luteolin] | 10.4 ± 4.7 % of control | only minimal enhancement

Row | Compound | Binding with RBD (% of control ± SD) | enhancement of blocking the RBD binding by Formula 1 when micronutrient tested individually
24 | COc1cc(/C=C/C(=O)CC(=O)/C=C/c2ccc(O)c(OC)c2)ccc1O [Curcumin] | 100 ± 0.2 % of control | –
25 | O=C(O)[C@H]1O[C@@H](Oc2cc3oc(-c4ccccc4)cc(=O)c3c(O)c2O)[C@H](O)[C@@H](O)[C@@H]1O [Baicalin] | 10.3 ± 2.9 % of control | only minimal enhancement
26 | C[C@@H]1O[C@@H](O[C@H]2[C@H](Oc3cc(O)c4c(c3)O[C@H](c3ccc(O)cc3)CC4=O)O[C@H](CO)[C@@H](O)[C@@H]2O)[C@H](O)[C@H](O)[C@H]1O [Naringin] | 23.6 ± 6.4 % of control | –
27 | Oc1cc(O)c2c(c1)O[C@@H](c1cc(O)c(O)c(O)c1)[C@H](O)C2 [(−)-gallocatechin] | 73.5 ± 6.7 % of control | –
28 | O=C1O[C@H]2[C@@H]3OC(=O)c4cc(O)c(O)c(O)c4-c4c(O)c(O)c5oc(=O)c6c(c(O)c(O)c7oc(=O)c4c5c76)-c4c(cc(O)c(O)c4O)C(=O)OC[C@H]3OC(O)[C@@H]2OC(=O)c2cc(O)c(O)c(O)c2-c2c1cc(O)c(O)c2O (mixture of isomers) [Punicalagin] | 32.3 ± 5.9 % of control | –
29 | O=c1cc(-c2ccccc2)oc2cc(O)c(O)c(O)c12 [Baicalein] | 22.5 ± 5.1 % of control | –
30 | COc1cc(/C=C/c2ccc(O)cc2)cc(OC)c1 [Pterostillbene] | 23.1 ± 2.8 % of control | –
31 | O=c1oc2cc(O)ccc2c2ccc(O)cc12 [Urolithin A] | 31.1 ± 4.6 % of control | –
32 | C=C(C)[C@H]1CC=C(C)CC1 [D-limonene] | 27.2 ± 6.4 % of control | –
33 | Oc1cc(O)cc(O)c1 [Phloroglucinol] | 69.5 ± 3.6 % of control | –
34 | CC(C)c1cc2c(c(O)c1O)[C@@]1(C(=O)O)CCCC(C)(C)[C@@H]1CC2 [Carnosic acid] | 27.1 ± 5.1 % of control | –
35 | O=c1c(O)c(-c2cc(O)c(O)c(O)c2)oc2cc(O)cc(O)c12 [Myricetin] | 45.5 ± 5.4 % of control | –
36 | CC(=O)c1c(O)c(C)c(O)c2c1OC1=CC(=O)C(C(C)=O)C(=O)C12C (stereo not shown) [Usnic acid] | 22.0 ± 3.4 % of control | –
37 | COc1ccc([C@@H]2CC(=O)c3c(O)cc(O[C@@H]4O[C@H](CO[C@@H]5O[C@@H](C)[C@H](O)[C@@H](O)[C@H]5O)[C@@H](O)[C@H](O)[C@H]4O)cc3O2)cc1O [Hesperidin] | 90.3 ± 3.8 % of control | only minimal enhancement
38 | O=C(OC[C@H]1O[C@@H](OC(=O)c2cc(O)c(O)c(OC(=O)c3cc(O)c(O)c(O)c3)c2)[C@H](OC(=O)c2cc(O)c(O)c(OC(=O)c3cc(O)c(O)c(O)c3)c2)[C@@H](OC(=O)c2cc(O)c(O)c(OC(=O)c3cc(O)c(O)c(O)c3)c2)[C@@H]1OC(=O)c1cc(O)c(O)c(OC(=O)c2cc(O)c(O)c(O)c2)c1)c1cc(O)c(O)c(OC(=O)c2cc(O)c(O)c(O)c2)c1 [Tannic acid] | 79.4 ± 2.3 % of control | –
39 | O=C(O[C@@H]1Cc2c(O)cc(O)cc2O[C@H]1c1ccc(O)c(O)c1)c1cc(O)c(O)c(O)c1 [(−)-catechin gallate] | 37.4 ± 4.7 % of control | –
40 | COc1ccc2cc3[n+](cc2c1OC)CCc1cc2c(cc1-3)OCO2 [Berberine] | 17.3 ± 2.7 % of control | –
41 | O=c1c(O)c(-c2ccc(O)cc2)oc2cc(O)cc(O)c12 [Kaemferol] | 15.6 ± 2.9 % of control | –
42 | COc1ccc([C@@H]2CC(=O)c3c(O)cc(O)cc3O2)cc1O [Hesperetin] | 42.5 ± 4.6 % of control | –
43 | O=c1c(O)c(-c2ccc(O)c(O)c2)oc2cc(O)cc(O)c12 [Quercetin] | 22.4 ± 6.5 % of control | –
44 | O=C(O)[C@H]1O[C@@H](Oc2cc3oc(-c4ccc(O)cc4)cc(=O)c3c(O)c2O)[C@H](O)[C@@H](O)[C@@H]1O [Scutellarin] | 8.1 ± 3.7 % of control | –
45 | O=c1c(O)c(-c2ccc(O)cc2O)oc2cc(O)cc(O)c12 [Morin] | 30.5 ± 5.8 % of control | –
46 | O=C(O)c1cc(O)c(O)c(O)c1 [Gallic acid] | 18.3 ± 4.5 % of control | –

Molecular target: T1, hACE2 (Homo sapiens, UniProt Q9BYF1)
T1 sequence (Q9BYF1 18-805): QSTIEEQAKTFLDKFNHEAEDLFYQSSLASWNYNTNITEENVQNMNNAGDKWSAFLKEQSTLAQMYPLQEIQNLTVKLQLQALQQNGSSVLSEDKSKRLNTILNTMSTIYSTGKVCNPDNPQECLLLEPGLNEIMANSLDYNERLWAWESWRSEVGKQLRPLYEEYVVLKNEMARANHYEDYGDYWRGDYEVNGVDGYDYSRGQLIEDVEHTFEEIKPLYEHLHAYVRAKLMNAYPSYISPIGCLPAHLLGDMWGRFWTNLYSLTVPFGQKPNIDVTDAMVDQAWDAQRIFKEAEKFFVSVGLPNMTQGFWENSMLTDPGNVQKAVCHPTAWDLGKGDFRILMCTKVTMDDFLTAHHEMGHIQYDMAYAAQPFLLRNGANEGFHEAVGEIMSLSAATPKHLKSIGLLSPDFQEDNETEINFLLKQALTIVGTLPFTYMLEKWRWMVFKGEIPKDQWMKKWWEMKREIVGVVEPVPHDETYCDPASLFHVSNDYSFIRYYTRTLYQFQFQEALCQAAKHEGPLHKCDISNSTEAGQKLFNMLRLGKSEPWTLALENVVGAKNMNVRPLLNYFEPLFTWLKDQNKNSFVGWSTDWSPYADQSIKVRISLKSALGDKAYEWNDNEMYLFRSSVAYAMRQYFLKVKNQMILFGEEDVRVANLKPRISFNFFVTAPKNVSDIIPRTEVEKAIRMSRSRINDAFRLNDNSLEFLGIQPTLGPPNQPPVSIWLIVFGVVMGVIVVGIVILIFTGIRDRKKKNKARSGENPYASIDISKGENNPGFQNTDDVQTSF
Experiment: not given
Settings: literature computational study (Jena et al.); cited from earlier work

Row | Compound | binding energy to hACE2
47 | catechin [cathechin] | -7.8 kcal/mol
48 | COc1cc(/C=C/C(=O)CC(=O)/C=C/c2ccc(O)c(OC)c2)ccc1O [Curcumin] | -8.9 kcal/mol

Molecular target: RBD of SARS-CoV-2 spike protein (Severe acute respiratory syndrome coronavirus 2, UniProt P0DTC2)
Experiment: not given
Settings: literature computational study; cited from earlier work

Row | Compound | binding energy ΔG to RBD / viral spike protein
49 | catechin [cathechin] | -7.9 kcal/mol
50 | COc1cc(/C=C/C(=O)CC(=O)/C=C/c2ccc(O)c(OC)c2)ccc1O [Curcumin] | -10.5 kcal/mol

Molecular target: T1, hACE2
Experiment: ACE2 binding assay (ACE2 Inhibitor Screening Assay Kit)
Parameters: purchased BPS Bioscience
Settings: not given

Row | Compound | concentration at which binding efficacy to ACE2 was shown
51 | COc1cc(/C=C/C(=O)CC(=O)/C=C/c2ccc(O)c(OC)c2)ccc1O [Curcumin] | 10 to 25 µg/mL

Test system: cathepsin L expression in A549 cells
Experiment: Cathepsin L expression in A549 cells (Western blot)
Format: cell-based, human
Settings: A549 cells
Experimental: Proteins (50 μg/well) were separated on 8-16% gradient SDS-PAGE gels and transferred to a PVDF membrane. […] Images were captured with Azure™ cSeries digital imaging system (Azure Biosystems, Dublin, Calif.) with auto-exposure settings. Densitometry was performed with NIH ImageJ software.
Cathepsin L expression: Expression of cathepsin L in cells was performed using Western blot. Briefly, 48 hours prior to the analysis, A549 cells were treated with PB at 5.0, and 10 μg/ml concentrations. Next, cells were washed with 1×PBS, lysed, and processed according to procedure described below.
Western blot: […] cells were lysed with lysis buffer [RIPA buffer plus 1× Protease Inhibitor (ThermoFisher Scientific, Waltham, Mass.)]. The protein estimation was performed with Dc Protein Assay (Bio-Rad, Hercules, Calif.). A 45 μg/well of protein was separated on 8-16% gradient SDS-PAGE gels and transferred to a PVDF membrane. Detection was performed with antibodies against cathepsin L at 1:200 dilution (Santa Cruz Biotechnology, Santa Cruz, Calif.) and against β-actin at 1:1000 dilution (Cell Signaling, Danvers, Mass.).

Row | Compound | cathepsin L expression at protein level
52 | COc1cc(/C=C/C(=O)CC(=O)/C=C/c2ccc(O)c(OC)c2)ccc1O [Curcumin] | neither brazilin nor curcumin down-regulated cathepsin L expression
